From patent US12715858B2, “Pyridazinone compounds” (INVENTISBIO CO., LTD., priority 2020, dated 2026)
≈ marks a conversion by molar mass, not a printed value. Like-named read-outs stand apart in the source and are kept apart here.

How the values were obtained:
Format in all cases: physicochemical
[1] = Solubility in water and bio-relevant media at 37° C. (HPLC of filtrate, pH of filtrate, XRPD of filter cake); conditions: for solubility at 24 h: read-out: Solubility (mg/mL) 24 h; for Solubility (mg/mL) 0.5 h / Solubility (mg/mL) 2 h / Solubility (mg/mL) 24 h: LOQ is 0.5 μg/mL; for XRPD: filter cake obtained at 2 or 24 hours; for PH 0.5 h / PH 2 h / PH 24 h: pH of the filtrate
Protocol: Solubility of Form I of free acid, Form 1 and Form 2 of potassium salt, and Form A of sodium salt were tested in water and in bio-relevant media of Simulated Intestinal Fluid (SIF), Simulated Gastric Fluid (SGF), Fasted State Simulated Intestinal Fluid (FaSSIF), and Fed State Simulated Intestinal Fluid (FeSSIF) at 37° C. up to 24 hours. About 12 mg of the sample was weighed into sample vials and then 1.5 mL of each media was added to make suspensions respectively. All suspensions were shaken at 37° C. with 200 rpm.

[2] = Solid state stability at 60° C. and 40° C./75% RH for 7 days (HPLC purity, XRPD)
Protocol: HPLC analysis was performed with an Agilent HPLC 1260 series instrument.
Appropriate amount of free acid Form I, potassium salts Form 1 and Form 2, and sodium salt Form A were placed at 60° C. and 40° C./75% RH for 7 days. At 0 and 7 days, the samples were dissolved in diluent to prepare a solution of 0.5 mg/mL for HPLC purity analysis. Solid samples were analyzed by XRPD to check the crystal form.

[3] = Dynamic Vapor Sorption (DVS)
Protocol: Dynamic Vapor Sorption (DVS): Moisture sorption/desorption data was collected on a IGASorp DVS. The sample was placed into a tarred sample chamber and weighed automatically. The sample was dried at 50° C. until the % RH was less than 0.3% and cooled to 25° C. Set the instrument parameters as below.

[4] = Physical stability upon grinding and high humidity
Protocol: Physical stability of Form I was evaluated upon grinding and high humidity (RT/92.5% RH for 24 days). For mechanical treatment study, Form I (10 mg) was ground manually for 5 min, and the sample was analyzed by XRPD after grinding for 2 and 5 min, respectively.

In the case of `Cc1nn(-c2cc(Cl)c(Oc3cc(C(C)C)c(=O)[nH]n3)c(Cl)c2)c(=O)[nH]c1=O` [Free acid Form I, 2-(3,5-dichloro-4-((5-isopropyl-6-oxo-1,6-dihydropyridazin-3-yl)oxy)phenyl)-6-methyl-1,2,4-triazine-3,5(2H,4H)-dione], the solubility at 24 h ([1]; FaSSIF (Fasted State Simulated Intestinal Fluid), thermodynamic from solid, FaSSIF, 37° C.) was 0.00052 mg/mL (≈ 1.23 µM), the “Solubility (mg/mL) 0.5 h” value ([1]; FaSSIF, 37° C., 0.5 h) was “<LOQ” and the “Solubility (mg/mL) 2 h” value ([1]; FaSSIF, 37° C., 2 h) was “<LOQ”. The “Solubility (mg/mL) 0.5 h” value ([1]; SGF, 37° C., 0.5 h) was “<LOQ”, the “Solubility (mg/mL) 2 h” value ([1]; SGF, 37° C., 2 h) was “<LOQ” and the “Solubility (mg/mL) 24 h” value ([1]; SGF, 37° C.) was “<LOQ”. The “Solubility (mg/mL) 0.5 h” value ([1]; SIF, 37° C., 0.5 h) was “<LOQ”, the “Solubility (mg/mL) 2 h” value ([1]; SIF, 37° C., 2 h) was “<LOQ” and the “Solubility (mg/mL) 24 h” value ([1]; SIF, 37° C.) was “<LOQ”. For the same molecule, the “Solubility (mg/mL) 0.5 h” value ([1]; Water, 37° C., 0.5 h) was “<LOQ”, the “Solubility (mg/mL) 2 h” value ([1]; Water, 37° C., 2 h) was “<LOQ” and the “Solubility (mg/mL) 24 h” value ([1]; Water, 37° C.) was “<LOQ”. For the same molecule, the XRPD ([1]; FaSSIF) was “unchanged”, the XRPD ([1]; SGF) was “unchanged” and the XRPD ([1]; SIF) was “unchanged”. For the same molecule, the XRPD ([1]; Water) was “unchanged”, the “PH 0.5 h” value ([1]; FaSSIF, 0.5 h) was 6.72 and the “PH 2 h” value ([1]; FaSSIF, 2 h) was 6.60. For the same molecule, the “PH 24 h” value ([1]; FaSSIF) was 6.74, the “PH 0.5 h” value ([1]; FeSSIF, 0.5 h) was 4.91 and the “PH 2 h” value ([1]; FeSSIF, 2 h) was 4.86. For the same molecule, the “PH 24 h” value ([1]; FeSSIF) was 5.00, the “PH 0.5 h” value ([1]; SGF, 0.5 h) was 1.17 and the “PH 2 h” value ([1]; SGF, 2 h) was 1.19. For the same molecule, the “PH 24 h” value ([1]; SGF) was 1.16, the “PH 0.5 h” value ([1]; SIF, 0.5 h) was 6.89 and the “PH 2 h” value ([1]; SIF, 2 h) was 6.86. For the same molecule, the “PH 24 h” value ([1]; SIF) was 6.79, the “PH 0.5 h” value ([1]; Water, 0.5 h) was 6.48 and the “PH 2 h” value ([1]; Water, 2 h) was 6.59. The “PH 24 h” value ([1]; Water) was 6.44, the solubility at 0.5 h ([1]; thermodynamic from solid, FeSSIF, 37° C., 0.5 h, read-out: Solubility (mg/mL) 0.5 h) was 0.00056 mg/mL (≈ 1.32 µM) and the solubility at 2 h ([1]; thermodynamic from solid, FeSSIF, 37° C., 2 h, read-out: Solubility (mg/mL) 2 h) was 0.001 mg/mL (≈ 2.36 µM). For the same molecule, the solubility at 24 h ([1]; thermodynamic from solid, FeSSIF, 37° C.) was 0.0011 mg/mL (≈ 2.59 µM), the “Purity at Day 7 (Area %) 40° C./75% RH” value ([2]; 7 days at 40° C./75% RH, HPLC) was 96.42 Area % and the “Purity at Day 7 (Area %) 60° C.” value ([2]; 7 days at 60° C., HPLC) was 96.47 Area %. The “XRPD 40° C./75% RH” value ([2]; crystal form after 7 days at 40° C./75% RH) was “Unchanged”, the “XRPD 60° C.” value ([2]; crystal form after 7 days at 60° C.) was “Unchanged” and the “Initial Purity (Area %)” value ([2]; day 0, HPLC) was 96.45 Area %. For the same molecule, the hygroscopicity ([3]; DVS) was “slightly hygroscopic”, the “crystal form of solid after the DVS study” value ([3]; XRPD after DVS) was “remained unchanged” and the “water uptake / weight gain by DVS” value ([3]; at 80% RH (Form I: 0 to 80% RH), 25° C.) was 0.9%. The “form change upon high humidity” value ([4]; RT/92.5% RH for 24 days) was “no form change was observed”, the “crystal form (XRPD) after grinding” value ([4]; ground manually, up to 5 min) was “remained unchanged” and the crystallinity after grinding ([4]; ground manually, up to 5 min) was “significantly decreased”.
